From PubChem BioAssay AID1963861 (Molecular Pharmacology Branch, DTP, NCI, 2024)

Test system: 885724-159-R-J1-PDC KRAS PDC multicell spheroid viability
Assay: Anticancer human tumor 885724-159-R-J1-PDC patient-derived pancreatic adenocarcinoma cell line growth inhibition [KRAS2]
Conditions: for IC50: curve of first compound; for viability, T/C: stronger effect = lower value
Procedure, shortened: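 KRAS-mutant tumor cells were grown as spheroids with HUVEC endothelial cells and human MSCs as stroma. Targeted agents were tested alone and with KRAS pathway inhibitors. Doses started at or near clinical Cmax, or 10 microM, descending half-log.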

[1] = second compound 0.1 µM, first compound 0.0316 µM
[2] = second compound 0.1 µM, first compound 0.1 µM
[3] = second compound 0.1 µM, first compound 0.316 µM
[4] = second compound 0.1 µM, first compound 1 µM
[5] = second compound 0.1 µM, first compound 3.16 µM
[6] = second compound 0.1 µM, first compound 10 µM
[7] = second compound 0.316 µM, first compound 0.0316 µM
[8] = second compound 0.316 µM, first compound 0.1 µM
[9] = second compound 0.316 µM, first compound 0.316 µM
[10] = second compound 0.316 µM, first compound 1 µM
[11] = second compound 0.316 µM, first compound 3.16 µM
[12] = second compound 0.316 µM, first compound 10 µM
[13] = second compound 1 µM, first compound 0.0316 µM
[14] = second compound 1 µM, first compound 0.1 µM
[15] = second compound 1 µM, first compound 0.316 µM
[16] = second compound 1 µM, first compound 1 µM
[17] = second compound 1 µM, first compound 3.16 µM
[18] = second compound 1 µM, first compound 10 µM
[19] = second compound 3.16 µM, first compound 0.0316 µM
[20] = second compound 3.16 µM, first compound 0.1 µM
[21] = second compound 3.16 µM, first compound 0.316 µM
[22] = second compound 3.16 µM, first compound 1 µM
[23] = second compound 3.16 µM, first compound 3.16 µM
[24] = second compound 3.16 µM, first compound 10 µM
[25] = second compound 10 µM, first compound 0.0316 µM
[26] = second compound 10 µM, first compound 0.1 µM
[27] = second compound 10 µM, first compound 0.316 µM
[28] = second compound 10 µM, first compound 1 µM
[29] = second compound 10 µM, first compound 3.16 µM
[30] = second compound 10 µM, first compound 10 µM
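Also: spheroids exposed to agents for 7 days before readout.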

For `COc1cc(Nc2ncc3c(n2)-c2ccc(Cl)cc2C(c2c(F)cccc2OC)=NC3)ccc1C(=O)O` + CNCc1ccccc1-c1csc(C(C)Nc2nc(C)nc3cc(OC)c(OC)cc23)c1, the IC50 (second compound 0.1 µM) was > 10000 nM, the IC50 (second compound 0.316 µM) was > 10000 nM and the IC50 (second compound 1 µM) was > 10000 nM. For the same molecule, the IC50 (second compound 3.16 µM) was < 31.6 nM, the IC50 (second compound 10 µM) was < 31.6 nM and the viability, T/C [1] was 102%. It also gave a viability, T/C [2] of 98.5%, a viability, T/C [3] of 90.5% and a viability, T/C [4] of 92.7%. For the same molecule, the viability, T/C [5] was 94.7%, the viability, T/C [6] was 101% and the viability, T/C [7] was 102%. For the same molecule, the viability, T/C [8] was 92.7%, the viability, T/C [9] was 89.4% and the viability, T/C [10] was 88.5%. It also gave a viability, T/C [11] of 81%, a viability, T/C [12] of 87.7% and a viability, T/C [13] of 94.8%. The viability, T/C [14] was 87.7%, the viability, T/C [15] was 73.6% and the viability, T/C [16] was 81.4%. It also gave a viability, T/C [17] of 75.6%, a viability, T/C [18] of 83.5% and a viability, T/C [19] of 2.11%. The viability, T/C [20] was 2.66%, the viability, T/C [21] was 1.13% and the viability, T/C [22] was 1.16%. It also gave a viability, T/C [23] of 4.03%, a viability, T/C [24] of 12.1% and a viability, T/C [25] of 0.16%. The viability, T/C [26] was 0.37%, the viability, T/C [27] was 0.43% and the viability, T/C [28] was 0.34%. The viability, T/C [29] was 0.16% and the viability, T/C [30] was 0.35%.
`COc1cc2nccc(Oc3ccc(NC(=O)C4(C(=O)Nc5ccc(F)cc5)CC4)cc3)c2cc1OC` + CNCc1ccccc1-c1csc(C(C)Nc2nc(C)nc3cc(OC)c(OC)cc23)c1 was tested, and the IC50 (second compound 0.1 µM) was > 10000 nM, the IC50 (second compound 0.316 µM) was > 10000 nM and the IC50 (second compound 1 µM) was 1770 nM. For the same molecule, the IC50 (second compound 3.16 µM) was < 31.6 nM, the IC50 (second compound 10 µM) was < 31.6 nM and the viability, T/C [1] was 98.3%. The viability, T/C [2] was 105%, the viability, T/C [3] was 99.2% and the viability, T/C [4] was 103%. For the same molecule, the viability, T/C [5] was 69.5%, the viability, T/C [6] was 61.3% and the viability, T/C [7] was 96.9%. For the same molecule, the viability, T/C [8] was 101%, the viability, T/C [9] was 95.3% and the viability, T/C [10] was 90%. The viability, T/C [11] was 61.6%, the viability, T/C [12] was 58.7% and the viability, T/C [13] was 99%. It also gave a viability, T/C [14] of 89.9%, a viability, T/C [15] of 85.1% and a viability, T/C [16] of 86.1%. For the same molecule, the viability, T/C [17] was 13.3%, the viability, T/C [18] was 12.6% and the viability, T/C [19] was 1.16%. The viability, T/C [20] was 0.87%, the viability, T/C [21] was 1.19% and the viability, T/C [22] was 0.42%. For the same molecule, the viability, T/C [23] was 0.32%, the viability, T/C [24] was 0.42% and the viability, T/C [25] was 0.39%. The viability, T/C [26] was 0.36%, the viability, T/C [27] was 0.17% and the viability, T/C [28] was 0.18%. It also gave a viability, T/C [29] of 0.51% and a viability, T/C [30] of 0.47%.
In the case of `Cn1ncnc1[C@H]1c2n[nH]c(=O)c3cc(F)cc(c23)N[C@@H]1c1ccc(F)cc1` + CNCc1ccccc1-c1csc(C(C)Nc2nc(C)nc3cc(OC)c(OC)cc23)c1, the IC50 (second compound 0.1 µM) is reported as > 100 nM, the IC50 (second compound 0.316 µM) is reported as > 100 nM and the IC50 (second compound 1 µM) is reported as > 100 nM. For the same molecule, the IC50 (second compound 3.16 µM) was < 0.316 nM, the IC50 (second compound 10 µM) was < 0.316 nM and the viability, T/C (second compound 0.1 µM, first compound 0.000316 µM) was 100%. For the same molecule, the viability, T/C (second compound 0.1 µM, first compound 0.001 µM) was 104%, the viability, T/C (second compound 0.1 µM, first compound 0.00316 µM) was 88.8% and the viability, T/C (second compound 0.1 µM, first compound 0.01 µM) was 99.5%. It also gave a viability, T/C [1] of 80.2%, a viability, T/C [2] of 80% and a viability, T/C (second compound 0.316 µM, first compound 0.000316 µM) of 92.6%. It also gave a viability, T/C (second compound 0.316 µM, first compound 0.001 µM) of 89.2%, a viability, T/C (second compound 0.316 µM, first compound 0.00316 µM) of 84.1% and a viability, T/C (second compound 0.316 µM, first compound 0.01 µM) of 98%. For the same molecule, the viability, T/C [7] was 77.4%, the viability, T/C [8] was 71.3% and the viability, T/C (second compound 1 µM, first compound 0.000316 µM) was 82.5%. The viability, T/C (second compound 1 µM, first compound 0.001 µM) was 83.4%, the viability, T/C (second compound 1 µM, first compound 0.00316 µM) was 91.2% and the viability, T/C (second compound 1 µM, first compound 0.01 µM) was 78.5%. For the same molecule, the viability, T/C [13] was 74.2%, the viability, T/C [14] was 76.9% and the viability, T/C (second compound 3.16 µM, first compound 0.000316 µM) was 1.47%. The viability, T/C (second compound 3.16 µM, first compound 0.001 µM) was 1.04%, the viability, T/C (second compound 3.16 µM, first compound 0.00316 µM) was 0.71% and the viability, T/C (second compound 3.16 µM, first compound 0.01 µM) was 0.73%. The viability, T/C [19] was 0.71%, the viability, T/C [20] was 0.75% and the viability, T/C (second compound 10 µM, first compound 0.000316 µM) was 0.51%. For the same molecule, the viability, T/C (second compound 10 µM, first compound 0.001 µM) was 0.45%, the viability, T/C (second compound 10 µM, first compound 0.00316 µM) was 0.13% and the viability, T/C (second compound 10 µM, first compound 0.01 µM) was 0.3%. For the same molecule, the viability, T/C [25] was 0.22% and the viability, T/C [26] was 0.48%.
